Measurements taken from ChEMBL document CHEMBL4431322, “Timosaponin AIII inhibits migration and invasion of A549 human non-small-cell lung cancer cells via attenuations of MMP-2 and MMP-9 by inhibitions of ERK1/2, Src/FAK and β-catenin signaling pathways” (2016).
Calls of active or inactive are those of the source. No cut-off for these calls is given here.

Assays:
[1] = target: Mitogen-activated protein kinase; ERK1/ERK2 (Homo sapiens) (UniProt P27361+P28482); assay: Inhibition of ERK1/2 phosphorylation in human A549 cells after 24 hrs by Western blot analysis; assay type: cell-based
[2] = tested on: A549; assay: Cell cycle arrest in human A549 cells assessed as accumulation at G2/M phase at 9 uM after 24 hrs by flow cytometry (reference value: 15.1%); assay type: functional
[3] = tested on: A549; assay: Inhibition of MMP2 mRNA expression in human A549 cells at 3 uM after 48 hrs by RT-PCR analysis; assay type: functional, cell-based
[4] = tested on: A549; assay: Cell cycle arrest in human A549 cells assessed as accumulation at S phase at 9 uM after 24 hrs by flow cytometry (reference value: 18.3%); assay type: functional
[5] = tested on: NCI-H1299; assay: Antimigratory activity in human H1299 cells at 1 to 6 uM incubated for 24 hrs by wound healing assay; assay type: functional, cell-based
[6] = tested on: A549; assay: Induction of apoptosis in human A549 cells assessed as late apoptotic cells at 9 uM after 24 hrs by flow cytometry (reference value: 7.9%); assay type: functional
[7] = tested on: A549; assay: Induction of apoptosis in human A549 cells assessed as dead cells at 9 uM after 24 hrs by flow cytometry (reference value: 0%); assay type: functional
[8] = target: c-Jun N-terminal kinase, JNK (Homo sapiens) (UniProt P45983+P53779+P45984); assay: Inhibition of JNK phosphorylation in human A549 cells at 3 to 9 uM after 24 hrs by Western blot analysis; assay type: cell-based
[9] = tested on: NCI-H1299; assay: Inhibition of cell invasion in human H1299 cells at 1 to 3 uM after 24 hrs by Boyden's chamber transwell invasion assay; assay type: functional, cell-based
[10] = tested on: A549; assay: Induction of apoptosis in human A549 cells assessed as live cells at 9 uM after 24 hrs by flow cytometry (reference value: 76.65%); assay type: functional
[11] = tested on: NCI-H1299; assay: Inhibition of MMP2 mRNA expression in human H1299 cells at 3 uM after 48 hrs by RT-PCR analysis; assay type: functional, cell-based
[12] = target: Proto-oncogene tyrosine-protein kinase Src (Homo sapiens) (UniProt P12931); assay: Inhibition of c-Src phosphorylation in human A549 cells at 3 to 9 uM after 24 hrs by Western blot analysis; assay type: cell-based
[13] = tested on: A549; assay: Induction of apoptosis in human A549 cells assessed as early apoptotic cells at 9 uM after 24 hrs by flow cytometry (reference value: 15.45%); assay type: functional
[14] = target: Focal adhesion kinase 1 (Homo sapiens) (UniProt Q05397); assay: Inhibition of FAK phosphorylation in human A549 cells at 3 to 9 uM after 24 hrs by Western blot analysis; assay type: cell-based
[15] = tested on: A549; assay: Inhibition of MMP9 mRNA expression in human A549 cells at 3 uM after 48 hrs by RT-PCR analysis; assay type: functional, cell-based
[16] = target: 72 kDa type IV collagenase (Homo sapiens) (UniProt P08253); assay: Inhibition of MMP2 activity in human H1299 cells at 3 uM after 48 hrs by gelatin zymography; assay type: cell-based
[17] = tested on: A549; assay: Antimigratory activity in human A549 cells incubated for 24 hrs by wound healing assay; assay type: functional, cell-based
[18] = target: Matrix metalloproteinase-9 (Homo sapiens) (UniProt P14780); assay: Inhibition of MMP9 activity in human A549 cells at 3 to 9 uM after 48 hrs by gelatin zymography; assay type: cell-based
[19] = tested on: NCI-H1299; assay: Inhibition of MMP9 mRNA expression in human H1299 cells at 3 uM after 48 hrs by RT-PCR analysis; assay type: functional, cell-based
[20] = target: Matrix metalloproteinase-9 (Homo sapiens) (UniProt P14780); assay: Inhibition of MMP9 activity in human H1299 cells at 3 uM after 48 hrs by gelatin zymography; assay type: cell-based
[21] = target: MAP kinase p38 (Homo sapiens) (UniProt O15264+Q15759+Q16539+P53778); assay: Inhibition of p38 phosphorylation in human A549 cells at 3 to 9 uM after 24 hrs by Western blot analysis; assay type: cell-based
[22] = target: 72 kDa type IV collagenase (Homo sapiens) (UniProt P08253); assay: Inhibition of MMP2 activity in human A549 cells at 3 to 9 uM after 48 hrs by gelatin zymography; assay type: cell-based
[23] = tested on: A549; assay: Cell cycle arrest in human A549 cells assessed as accumulation at G0/G1 phase at 9 uM after 24 hrs by flow cytometry (reference value: 66.5%); assay type: functional
[24] = target: T1, Catenin beta-1 (Homo sapiens) (UniProt P35222); assay: Inhibition of beta-catenin signalling in human A549 cells assessed as reduction in beta-catenin level at 3 to 9 uM after 24 hrs by Western blot analysis; assay type: cell-based
T1 sequence (whole entry): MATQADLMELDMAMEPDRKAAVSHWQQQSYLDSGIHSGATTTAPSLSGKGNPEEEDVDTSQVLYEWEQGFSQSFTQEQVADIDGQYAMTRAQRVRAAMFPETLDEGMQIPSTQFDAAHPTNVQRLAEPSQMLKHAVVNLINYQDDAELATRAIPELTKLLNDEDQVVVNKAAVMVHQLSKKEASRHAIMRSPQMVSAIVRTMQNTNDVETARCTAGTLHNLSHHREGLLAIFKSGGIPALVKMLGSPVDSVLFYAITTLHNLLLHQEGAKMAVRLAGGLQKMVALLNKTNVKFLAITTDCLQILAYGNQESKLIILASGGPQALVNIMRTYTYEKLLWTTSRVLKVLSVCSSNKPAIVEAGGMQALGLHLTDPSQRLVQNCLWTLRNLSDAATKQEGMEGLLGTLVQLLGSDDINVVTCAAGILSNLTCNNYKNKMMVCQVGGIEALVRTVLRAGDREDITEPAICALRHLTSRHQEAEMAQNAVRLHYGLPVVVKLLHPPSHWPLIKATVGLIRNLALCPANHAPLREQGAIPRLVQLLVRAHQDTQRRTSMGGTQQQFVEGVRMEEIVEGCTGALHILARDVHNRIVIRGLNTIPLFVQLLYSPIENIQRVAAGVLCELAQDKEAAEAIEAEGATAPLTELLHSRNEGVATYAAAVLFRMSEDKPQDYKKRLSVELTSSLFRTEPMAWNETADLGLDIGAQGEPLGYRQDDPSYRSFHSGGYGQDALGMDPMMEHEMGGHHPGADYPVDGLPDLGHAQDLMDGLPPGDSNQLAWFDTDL

[25] = tested on: A549; assay: Inhibition of cell invasion in human A549 cells at 1 to 3 uM after 24 hrs by Boyden's chamber transwell invasion assay; assay type: functional, cell-based
[26] = tested on: A549; assay: Cytotoxicity against human A549 cells assessed as cell survival up to 10 uM incubated for 24 hrs by CCK8 assay; assay type: functional

72 kDa type IV collagenase (Homo sapiens), sequence (P08253 110-660 limits assumed): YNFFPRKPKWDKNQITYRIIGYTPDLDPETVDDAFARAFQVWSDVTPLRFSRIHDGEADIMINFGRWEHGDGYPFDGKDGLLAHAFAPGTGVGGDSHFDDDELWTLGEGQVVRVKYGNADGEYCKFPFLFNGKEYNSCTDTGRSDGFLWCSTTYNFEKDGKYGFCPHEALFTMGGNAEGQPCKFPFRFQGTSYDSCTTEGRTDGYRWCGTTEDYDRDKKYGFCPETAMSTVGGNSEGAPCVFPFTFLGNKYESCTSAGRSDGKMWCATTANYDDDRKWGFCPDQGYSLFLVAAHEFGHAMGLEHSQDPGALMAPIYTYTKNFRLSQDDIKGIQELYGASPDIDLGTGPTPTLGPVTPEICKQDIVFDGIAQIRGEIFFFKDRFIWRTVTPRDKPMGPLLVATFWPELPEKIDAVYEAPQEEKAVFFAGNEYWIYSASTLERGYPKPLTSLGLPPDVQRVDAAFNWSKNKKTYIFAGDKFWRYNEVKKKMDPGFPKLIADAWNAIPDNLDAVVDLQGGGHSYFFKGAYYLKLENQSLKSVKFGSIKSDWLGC
Matrix metalloproteinase-9 (Homo sapiens), sequence (P14780 whole entry): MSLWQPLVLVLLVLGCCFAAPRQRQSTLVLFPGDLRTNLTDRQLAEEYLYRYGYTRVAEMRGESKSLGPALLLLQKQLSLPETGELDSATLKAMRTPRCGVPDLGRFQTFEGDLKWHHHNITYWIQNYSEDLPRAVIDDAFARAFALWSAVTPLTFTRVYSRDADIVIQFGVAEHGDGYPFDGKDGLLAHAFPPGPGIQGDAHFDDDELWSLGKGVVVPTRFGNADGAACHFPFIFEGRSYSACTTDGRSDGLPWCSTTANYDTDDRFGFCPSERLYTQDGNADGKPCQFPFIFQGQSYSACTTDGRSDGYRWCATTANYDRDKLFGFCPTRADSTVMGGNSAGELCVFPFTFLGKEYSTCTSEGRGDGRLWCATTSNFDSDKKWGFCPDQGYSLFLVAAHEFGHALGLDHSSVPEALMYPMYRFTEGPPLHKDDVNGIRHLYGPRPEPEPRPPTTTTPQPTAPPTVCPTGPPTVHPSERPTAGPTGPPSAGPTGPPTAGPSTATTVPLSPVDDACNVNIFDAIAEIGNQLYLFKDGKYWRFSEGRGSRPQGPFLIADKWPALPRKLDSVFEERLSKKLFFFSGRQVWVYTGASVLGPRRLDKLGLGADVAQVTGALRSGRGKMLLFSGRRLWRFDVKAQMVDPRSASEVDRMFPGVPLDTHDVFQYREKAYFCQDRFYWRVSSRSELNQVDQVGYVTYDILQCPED
Focal adhesion kinase 1 (Homo sapiens), sequence (Q05397 2-1052 limits assumed): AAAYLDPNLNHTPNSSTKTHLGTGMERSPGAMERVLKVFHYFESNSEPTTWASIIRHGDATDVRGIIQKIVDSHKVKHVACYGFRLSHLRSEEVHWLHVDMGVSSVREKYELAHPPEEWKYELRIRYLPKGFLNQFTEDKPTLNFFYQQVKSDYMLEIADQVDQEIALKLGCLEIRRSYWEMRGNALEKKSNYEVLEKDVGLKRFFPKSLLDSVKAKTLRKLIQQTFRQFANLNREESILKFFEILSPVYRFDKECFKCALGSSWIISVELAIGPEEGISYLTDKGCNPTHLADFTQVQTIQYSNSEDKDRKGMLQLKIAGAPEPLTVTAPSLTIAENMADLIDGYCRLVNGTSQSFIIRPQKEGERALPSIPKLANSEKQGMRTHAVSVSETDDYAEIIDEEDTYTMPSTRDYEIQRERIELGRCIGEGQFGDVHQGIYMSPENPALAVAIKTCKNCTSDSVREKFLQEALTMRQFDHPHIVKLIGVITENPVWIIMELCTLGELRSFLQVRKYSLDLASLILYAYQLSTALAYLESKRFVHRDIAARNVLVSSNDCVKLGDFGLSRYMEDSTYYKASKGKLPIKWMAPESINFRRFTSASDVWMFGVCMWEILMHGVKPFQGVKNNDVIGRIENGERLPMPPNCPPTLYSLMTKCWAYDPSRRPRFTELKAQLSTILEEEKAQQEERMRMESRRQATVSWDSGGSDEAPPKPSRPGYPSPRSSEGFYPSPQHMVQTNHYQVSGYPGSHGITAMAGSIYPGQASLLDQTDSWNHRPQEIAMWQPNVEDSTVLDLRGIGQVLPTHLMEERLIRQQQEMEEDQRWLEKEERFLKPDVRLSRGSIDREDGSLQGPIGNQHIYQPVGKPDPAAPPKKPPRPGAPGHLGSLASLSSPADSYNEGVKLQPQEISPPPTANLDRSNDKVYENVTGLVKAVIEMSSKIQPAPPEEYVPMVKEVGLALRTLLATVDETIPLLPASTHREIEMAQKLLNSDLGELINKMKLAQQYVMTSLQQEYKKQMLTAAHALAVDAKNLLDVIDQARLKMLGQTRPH
Proto-oncogene tyrosine-protein kinase Src (Homo sapiens), sequence (P12931 2-536 limits assumed): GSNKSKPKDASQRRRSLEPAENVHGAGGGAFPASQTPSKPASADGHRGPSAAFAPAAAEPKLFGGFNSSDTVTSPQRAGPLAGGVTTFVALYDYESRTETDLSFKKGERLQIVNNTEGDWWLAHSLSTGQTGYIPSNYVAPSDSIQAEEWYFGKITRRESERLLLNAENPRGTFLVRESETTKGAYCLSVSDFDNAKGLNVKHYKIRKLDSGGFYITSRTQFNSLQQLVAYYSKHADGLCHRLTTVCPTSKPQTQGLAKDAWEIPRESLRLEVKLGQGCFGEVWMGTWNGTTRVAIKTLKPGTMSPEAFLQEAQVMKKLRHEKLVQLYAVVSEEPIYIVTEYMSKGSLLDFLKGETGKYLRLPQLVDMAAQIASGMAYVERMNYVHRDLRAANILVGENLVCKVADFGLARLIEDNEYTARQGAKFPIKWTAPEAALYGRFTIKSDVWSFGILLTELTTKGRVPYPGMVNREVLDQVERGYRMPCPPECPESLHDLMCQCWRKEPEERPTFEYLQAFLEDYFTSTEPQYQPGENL
Mitogen-activated protein kinase; ERK1/ERK2 (Homo sapiens), sequence (P27361 whole entry, looked up): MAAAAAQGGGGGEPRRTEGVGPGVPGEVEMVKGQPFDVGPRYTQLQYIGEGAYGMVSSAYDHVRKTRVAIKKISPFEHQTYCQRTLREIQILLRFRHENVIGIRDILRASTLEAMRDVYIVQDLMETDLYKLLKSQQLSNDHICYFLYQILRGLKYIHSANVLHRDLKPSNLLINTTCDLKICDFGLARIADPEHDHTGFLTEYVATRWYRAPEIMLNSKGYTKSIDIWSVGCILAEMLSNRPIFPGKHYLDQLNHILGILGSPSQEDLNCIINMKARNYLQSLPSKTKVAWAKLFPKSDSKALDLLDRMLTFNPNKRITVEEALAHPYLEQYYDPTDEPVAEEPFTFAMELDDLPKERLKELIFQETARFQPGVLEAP
Mitogen-activated protein kinase; ERK1/ERK2 (Homo sapiens), sequence (P28482 whole entry, looked up): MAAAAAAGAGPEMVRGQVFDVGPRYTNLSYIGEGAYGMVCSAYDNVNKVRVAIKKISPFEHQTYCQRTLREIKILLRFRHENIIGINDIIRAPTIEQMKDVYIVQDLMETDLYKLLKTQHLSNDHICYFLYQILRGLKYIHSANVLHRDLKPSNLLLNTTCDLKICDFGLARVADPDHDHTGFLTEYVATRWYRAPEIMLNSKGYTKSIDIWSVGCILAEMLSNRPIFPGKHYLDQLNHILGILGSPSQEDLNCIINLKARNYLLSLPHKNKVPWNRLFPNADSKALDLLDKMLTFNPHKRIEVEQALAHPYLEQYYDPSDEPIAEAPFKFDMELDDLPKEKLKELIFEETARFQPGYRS

C[C@H]1CC[C@@]2(OC1)O[C@H]1C[C@H]3[C@@H]4CC[C@@H]5C[C@@H](O[C@@H]6O[C@H](CO)[C@@H](O)[C@H](O)[C@H]6O[C@@H]6O[C@H](CO)[C@@H](O)[C@H](O)[C@H]6O)CC[C@]5(C)[C@H]4CC[C@]3(C)[C@H]1[C@@H]2C
inhibition [1]: Dose-dependent effect | Activity [2]: 14% | inhibition [3]: Active | Activity [4]: 11.2% | inhibition [5]: Active | Activity [6]: 16.6% | Activity [7]: 0% | inhibition [8]: inactive | inhibition [9]: Active | Activity [10]: 54.15% | inhibition [11]: Active | inhibition [12]: Active | Activity [13]: 29.25% | inhibition [14]: Active | inhibition [15]: Active | inhibition [16]: Active | inhibition [17]: Dose-dependent effect | inhibition [18]: Active | inhibition [19]: Active | inhibition [20]: Active | inhibition [21]: inactive | inhibition [22]: Active | Activity [23]: 74.8% | inhibition [24]: Active | inhibition [25]: Active | Survival [26]: <50%
